The values that follow are results of earlier work, collected in US20220000962A1, “PLANT-BASED BIOLOGICALLY ACTIVE SUBSTANCE HAVING A POLYPHARMACOLOGICAL EFFECT” (priority 2015, published 2022).

The data set concerns CMV. Conditions: tricin obtained from Sasa albo-marginata.

Consider `COc1cc(-c2cc(=O)c3c(O)cc(O)cc3o2)cc(OC)c1O` [tricin, 5,7,4-trihydroxy-3′,5′-dimethoxyflavone], for which the “concentration which inhibits development of CMV infection on the cellular level for 50%” value is 0.139 µg/mL. Besides, for the setting “read-out: concentration which inhibits development of CMV infection on the cellular level for 50%”, the IC50 was 420 nM.
